Laboratory results published in the supplement of paper PMC10307832.

Key:
Test in all cases: relative viability (nuclei count vs DMSO), 5 days (fraction); higher = more cells survive
[1] = compound: O=C1NC(=O)[C@@H](c2cn3c4c(cccc24)CCC3)[C@@H]1c1c[nH]c2ccccc12 [Tivantinib] + Nc1nc2[nH]cc(CCc3ccc(C(=O)N[C@@H](CCC(=O)O)C(=O)O)cc3)c2c(=O)[nH]1 [Pemetrexed] (partner 0.2 µM)
Procedure, shortened: (§1)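 Each reported value is a median over duplicate plates. It expresses relative viability: treated-well nuclei count divided by vehicle-well nuclei count. Lung cancer cell lines in 1536-well plates were dosed by pin tool a day after seeding, alone with one drug or with a fixed anchor-drug dose plus five library-drug doses (not always all listed) in √10 steps, and nuclei were counted after 5 days.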

[2] = compound: CC1(COc2ccc3c(c2)ncn3-c2ccc3cccc(N4CCC(N)CC4)c3n2)COC1 [Crenolanib] + COc1cccc2cc(-c3nc([C@H]4CC[C@H](C(=O)O)CC4)n4ncnc(N)c34)[nH]c12 [OSI-027] (partner 0.5 µM)
Procedure, shortened: as §1

[3] = compound: O=C1NC(=O)[C@@H](c2cn3c4c(cccc24)CCC3)[C@@H]1c1c[nH]c2ccccc12 [Tivantinib]
Procedure, shortened: (§2)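 Lung cancer cell lines in 1536-well plates were exposed by pinning to five library-drug doses (not always all listed) √10 apart, following an overnight hold at 37 °C. MetaXpress counted Hoechst-stained nuclei from 4× images taken after 5 days without medium change. Viability is the median ratio of treated-well to vehicle-well nuclei across plates. Plates required control CV below 25% and at least one doubling.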

[4] = compound: CC1(COc2ccc3c(c2)ncn3-c2ccc3cccc(N4CCC(N)CC4)c3n2)COC1 [Crenolanib]
Procedure, shortened: as §2

PC-14
relative viability ([1]; first compound 0.01 µM): 0.142
relative viability ([1]; first compound 0.03162 µM): 0.123
relative viability ([1]; first compound 0.1 µM): 0.147
relative viability ([1]; first compound 0.3162 µM): 0.103
relative viability ([2]; first compound 0.01 µM): 0.883
relative viability ([2]; first compound 0.03162 µM): 0.776
relative viability ([2]; first compound 0.1 µM): 0.764
relative viability ([2]; first compound 0.3162 µM): 0.816
relative viability ([2]; first compound 1 µM): 0.617
relative viability ([3]; 0.01 µM): 0.946
relative viability ([3]; 0.03162 µM): 0.985
relative viability ([3]; 0.1 µM): 0.99
relative viability ([3]; 0.3162 µM): 0.773
relative viability ([4]; 0.01 µM): 1.13
relative viability ([4]; 0.03162 µM): 0.92
relative viability ([4]; 0.1 µM): 0.997
relative viability ([4]; 0.3162 µM): 1.02
relative viability ([4]; 1 µM): 0.821

RERF-LC-KJ
relative viability ([1]; first compound 0.01 µM): 0.38
relative viability ([1]; first compound 0.03162 µM): 0.452
relative viability ([1]; first compound 0.1 µM): 0.445
relative viability ([1]; first compound 0.3162 µM): 0.44
relative viability ([2]; first compound 0.01 µM): 0.583
relative viability ([2]; first compound 0.03162 µM): 0.582
relative viability ([2]; first compound 0.1 µM): 0.574
relative viability ([2]; first compound 0.3162 µM): 0.648
relative viability ([2]; first compound 1 µM): 0.448
relative viability ([3]; 0.01 µM): 1.01
relative viability ([3]; 0.03162 µM): 1.03
relative viability ([3]; 0.1 µM): 0.996
relative viability ([3]; 0.3162 µM): 0.763
relative viability ([4]; 0.01 µM): 1.04
relative viability ([4]; 0.03162 µM): 1.01
relative viability ([4]; 0.1 µM): 1
relative viability ([4]; 0.3162 µM): 1.06
relative viability ([4]; 1 µM): 1.02

SK-LU-1
relative viability ([1]; first compound 0.01 µM): 0.935
relative viability ([1]; first compound 0.03162 µM): 1.06
relative viability ([1]; first compound 0.1 µM): 0.96
relative viability ([1]; first compound 0.3162 µM): 1.04
relative viability ([2]; first compound 0.01 µM): 0.386
relative viability ([2]; first compound 0.03162 µM): 0.385
relative viability ([2]; first compound 0.1 µM): 0.218
relative viability ([2]; first compound 0.3162 µM): 0.372
relative viability ([2]; first compound 1 µM): 0.349
relative viability ([3]; 0.01 µM): 1.08
relative viability ([3]; 0.03162 µM): 1.08
relative viability ([3]; 0.1 µM): 0.987
relative viability ([3]; 0.3162 µM): 1.01
relative viability ([4]; 0.01 µM): 1.03
relative viability ([4]; 0.03162 µM): 1.04
relative viability ([4]; 0.1 µM): 0.755
relative viability ([4]; 0.3162 µM): 1.08
relative viability ([4]; 1 µM): 1.04
